ChEMBL document CHEMBL1201862, “PubChem BioAssay data set” (2004)
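Five compound concentrations were applied to cells in 96-well plates for 48 hours; endpoints were derived by simple linear interpolation of the resulting dose-response curve. GI50 = concentration required for 50% inhibition of growth.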 Activity calls are given as the source filed them. Cut-off read from the data, not from the text of the source: active = GI50 up to about 1.1 µM and inactive = higher.

Experiments:
Experiment in all cases: NCI tumour cell line growth inhibition, 48 h
[1] = system: ACHN
[2] = system: CAKI-1
[3] = system: CCRF-CEM
[4] = system: DU-145
[5] = system: EKVX
[6] = system: HCT-116
[7] = system: HL-60
[8] = system: HOP-62
[9] = system: IGROV-1
[10] = system: M14
[11] = system: MDA-N
[12] = system: MOLT-4
[13] = system: NCI-H226
[14] = system: NCI-H522
[15] = system: RXF 393
[16] = system: SF-295
[17] = system: SN12C
[18] = system: SW-620
[19] = system: U-251

SMILES	GI50 [1]	GI50 [2]	GI50 [3]	GI50 [4]	GI50 [5]	GI50 [6]	GI50 [7]	GI50 [8]	GI50 [9]	GI50 [10]	GI50 [11]	GI50 [12]	GI50 [13]	GI50 [14]	GI50 [15]	GI50 [16]	GI50 [17]	GI50 [18]	GI50 [19]
CC(=O)OCC1OC(OC2CC3C(C)(C)C(OC(C)=O)CC[C@]3(C)C3CCC45CC4(CCC5[C@@H](C)C[C@H](O)C(O)C(C)(C)O)[C@]23C)C(O)C(O)C1O (stereo not given in full)	> 10 µM (inactive)	> 10 µM (inactive)	> 10 µM (inactive)	> 10 µM (inactive)	> 10 µM (inactive)	> 10 µM (inactive)	9.44 µM (inactive)	> 10 µM (inactive)	> 10 µM (inactive)	> 10 µM (inactive)	> 10 µM (inactive)	> 10 µM (inactive)	> 10 µM (inactive)	> 10 µM (inactive)	> 10 µM (inactive)	> 10 µM (inactive)	> 10 µM (inactive)	> 10 µM (inactive)	> 10 µM (inactive)
O=C1OC(=O)C2=C1C(c1cccs1)C=C(c1cccnc1)N2c1ccncc1 (stereo not given)	16.5 µM (inactive)	15.1 µM (inactive)	20.1 µM (inactive)	16.6 µM (inactive)	14 µM (inactive)	14.3 µM (inactive)	11 µM (inactive)	15.8 µM (inactive)	13.8 µM (inactive)	13.2 µM (inactive)	17.8 µM (inactive)	23.1 µM (inactive)	21.6 µM (inactive)	13.8 µM (inactive)	16.2 µM (inactive)	20.9 µM (inactive)	17.1 µM (inactive)	20.7 µM (inactive)	16.9 µM (inactive)
COCN1C(=O)[C@@H]2CCCN2C(=O)c2ccc(N)cc21	> 100 µM (inactive)	> 100 µM (inactive)	> 100 µM (inactive)	> 100 µM (inactive)	> 100 µM (inactive)	> 100 µM (inactive)	> 100 µM (inactive)	> 100 µM (inactive)	> 100 µM (inactive)	> 100 µM (inactive)	> 100 µM (inactive)	> 100 µM (inactive)	> 100 µM (inactive)	> 100 µM (inactive)	> 100 µM (inactive)	> 100 µM (inactive)	> 100 µM (inactive)	> 100 µM (inactive)	> 100 µM (inactive)
CC(=O)NC1c2ccccc2C(C)(C)C12CCC1(CC2)OCCO1 (stereo not given)	> 100 µM (inactive)	> 100 µM (inactive)	> 100 µM (inactive)	> 100 µM (inactive)	> 100 µM (inactive)	> 100 µM (inactive)	> 100 µM (inactive)	> 100 µM (inactive)	> 100 µM (inactive)	> 100 µM (inactive)	> 100 µM (inactive)	> 100 µM (inactive)	> 100 µM (inactive)	> 100 µM (inactive)	37.9 µM (inactive)	> 100 µM (inactive)	> 10 µM (inactive)	> 100 µM (inactive)	> 100 µM (inactive)
CCCCCCCCCCCC(=O)N(CCCCCCCCC)CC(O)C(O)C(OC1OC(CO)C(O)C(O)C1O)C(O)CO (stereo not given)	17.7 µM (inactive)	20.7 µM (inactive)	24 µM (inactive)	18.5 µM (inactive)	17.3 µM (inactive)	17.7 µM (inactive)	25.6 µM (inactive)	20.6 µM (inactive)	18.3 µM (inactive)	19.4 µM (inactive)	20.4 µM (inactive)	23.2 µM (inactive)	20.4 µM (inactive)	22.1 µM (inactive)	20.7 µM (inactive)	18.4 µM (inactive)	19.1 µM (inactive)	18.8 µM (inactive)	20.4 µM (inactive)
ClC1=C(Cl)C(Cl)(Cl)SS1	5.98 µM (inactive)	2.96 µM (inactive)	0.879 µM (active)	> 10 µM (inactive)	> 10 µM (inactive)	> 4.57 µM (inactive)	2.24 µM (inactive)	> 10 µM (inactive)	> 7 µM (inactive)	3.8 µM (inactive)	9.68 µM (inactive)	1.31 µM (inactive)	> 10 µM (inactive)	2.88 µM (inactive)	> 10 µM (inactive)	> 10 µM (inactive)	> 10 µM (inactive)	2.47 µM (inactive)	> 10 µM (inactive)
COc1ccc(C2C3CCc4ccccc4C3=NN2S(=O)(=O)c2ccc(Cl)cc2)cc1 (stereo not given)	15.4 µM (inactive)	16.2 µM (inactive)	17.9 µM (inactive)	30 µM (inactive)	35.7 µM (inactive)	18.3 µM (inactive)	17.9 µM (inactive)	31.8 µM (inactive)	2.61 µM (inactive)	18.3 µM (inactive)	2.81 µM (inactive)	13.1 µM (inactive)	20.7 µM (inactive)	9.14 µM (inactive)	12.1 µM (inactive)	18.2 µM (inactive)	37 µM (inactive)	23.2 µM (inactive)	17.6 µM (inactive)
c1ccc(C(c2cccc3c2ccc2ccccc23)C(c2ccccc2)c2cccc3c2ccc2ccccc23)cc1 (stereo not given)	> 100 µM (inactive)	> 100 µM (inactive)	> 100 µM (inactive)	> 100 µM (inactive)	> 100 µM (inactive)	> 100 µM (inactive)	65.8 µM (inactive)	> 100 µM (inactive)	> 100 µM (inactive)	> 100 µM (inactive)	> 100 µM (inactive)	> 100 µM (inactive)	> 100 µM (inactive)	> 100 µM (inactive)	> 100 µM (inactive)	> 100 µM (inactive)	> 100 µM (inactive)	> 100 µM (inactive)	> 100 µM (inactive)
O=S(=O)(O)c1ccc(Nc2ccnc3cc(Cl)ccc23)cc1	> 100 µM (inactive)	> 100 µM (inactive)	> 100 µM (inactive)	> 100 µM (inactive)	> 100 µM (inactive)	> 100 µM (inactive)	> 100 µM (inactive)	> 100 µM (inactive)	> 100 µM (inactive)	> 100 µM (inactive)	> 100 µM (inactive)	> 100 µM (inactive)	> 100 µM (inactive)	> 100 µM (inactive)	> 100 µM (inactive)	> 100 µM (inactive)	> 100 µM (inactive)	> 100 µM (inactive)	> 100 µM (inactive)
CC(=O)NC(Cc1ccccc1)NC(=O)O (stereo not given)	> 100 µM (inactive)	> 100 µM (inactive)	> 100 µM (inactive)	> 100 µM (inactive)	> 100 µM (inactive)	> 100 µM (inactive)	> 100 µM (inactive)	> 100 µM (inactive)	> 100 µM (inactive)	> 100 µM (inactive)	> 100 µM (inactive)	> 100 µM (inactive)	> 100 µM (inactive)	> 100 µM (inactive)	> 100 µM (inactive)	> 100 µM (inactive)	> 100 µM (inactive)	> 100 µM (inactive)	> 100 µM (inactive)
